Measured values reported in PubChem BioAssay AID2060624 (Molecular Pharmacology Branch, DTP, NCI, 2025).
Where “and” joins values, the source holds several entries; their conditions need not be identical. Equal entries are not always repeated.

System: 217524-143-R1-J4-PDC spheroids with HUVEC/MSC, viability
Assay: Anticancer human tumor 217524-143-R1-J4-PDC patient-derived pancreatic carcinoma cell line growth inhibition [CLK]
Conditions: for viability, T/C: stronger effect = lower value
Outline: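 Multi-cell-type spheroids combined patient-derived tumor cells with HUVEC endothelial cells and human mesenchymal stem cells. Paired agents were dosed in half-log steps down from about clinical Cmax, or from 10 microM where Cmax was unknown.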

[1] = curve of first compound, second compound 0.0316 µM
[2] = curve of first compound, second compound 0.1 µM
[3] = curve of first compound, second compound 0.316 µM
[4] = curve of first compound, second compound 1 µM
[5] = curve of first compound, second compound 3.16 µM
[6] = curve of first compound, second compound 10 µM
[7] = second compound 0.0316 µM, first compound 0.0316 µM
[8] = second compound 0.0316 µM, first compound 0.1 µM
[9] = second compound 0.1 µM, first compound 0.0316 µM
[10] = second compound 0.1 µM, first compound 0.1 µM
[11] = second compound 0.316 µM, first compound 0.0316 µM
[12] = second compound 0.316 µM, first compound 0.1 µM
[13] = second compound 1 µM, first compound 0.0316 µM
[14] = second compound 1 µM, first compound 0.1 µM
[15] = second compound 3.16 µM, first compound 0.0316 µM
[16] = second compound 3.16 µM, first compound 0.1 µM
[17] = second compound 10 µM, first compound 0.0316 µM
[18] = second compound 10 µM, first compound 0.1 µM
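Further: spheroids exposed to agents for seven days before reading.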
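Wherever viability, T/C is given: 100% = DMSO vehicle control viability.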

Question: For `CC1COCCN1c1cc(C2(S(C)(=N)=O)CC2)nc(-c2ccnc3[nH]ccc23)n1` (stereo not drawn), which viability, T/C (compound 0.0316 µM) is on record?
Answer: 102% and 109%

Question: What about the viability, T/C (compound 0.1 µM) of the same compound?
Answer: 94.1% and 75.7%

Question: What about the viability, T/C (compound 0.316 µM) of the same compound?
Answer: 87.9% and 82.8%

Question: And the viability, T/C (compound 1 µM)?
Answer: 89.5% and 69.8%

Question: What about the viability, T/C (compound 3.16 µM) of the same compound?
Answer: 35.7% and 35%

Question: And the viability, T/C (compound 10 µM)?
Answer: 21.4% and 20.1%

Question: What about the IC50 (curve of compound) of the same compound?
Answer: 2330 nM and 1890 nM

Question: Which IC50 [1] does the source give for `COc1cccc2c1C(=O)c1c(O)c3c(c(O)c1C2=O)CC(O)(C(=O)CO)CC3OC1CC(N)C(O)C(C)O1` (stereo not drawn) + CN1CCN(c2cc(C(=O)Nc3cc4cc(-c5cnn(C)c5)ccc4cn3)ccn2)CC1 here?
Answer: < 31.6 nM

Question: What about the IC50 [2] of the same compound?
Answer: < 31.6 nM

Question: And the IC50 [3]?
Answer: < 31.6 nM

Question: And the IC50 [4]?
Answer: < 31.6 nM

Question: What about the IC50 [5] of the same compound?
Answer: < 31.6 nM

Question: What about the IC50 [6] of the same compound?
Answer: < 31.6 nM

Question: And the viability, T/C [7]?
Answer: 31.5%

Question: And the viability, T/C [8]?
Answer: 22.6%

Question: What about the viability, T/C (second compound 0.0316 µM, first compound 0.316 µM) of the same compound?
Answer: 18.3%

Question: What about the viability, T/C (second compound 0.0316 µM, first compound 1 µM) of the same compound?
Answer: 12.8%

Question: What about the viability, T/C (second compound 0.0316 µM, first compound 3.16 µM) of the same compound?
Answer: 3.21%

Question: And the viability, T/C (second compound 0.0316 µM, first compound 10 µM)?
Answer: 1.12%

Question: What about the viability, T/C [9] of the same compound?
Answer: 23.1%

Question: What about the viability, T/C [10] of the same compound?
Answer: 19.4%

Question: What about the viability, T/C (second compound 0.1 µM, first compound 0.316 µM) of the same compound?
Answer: 13.4%

Question: What about the viability, T/C (second compound 0.1 µM, first compound 1 µM) of the same compound?
Answer: 11.9%

Question: What about the viability, T/C (second compound 0.1 µM, first compound 3.16 µM) of the same compound?
Answer: 2.23%

Question: And the viability, T/C (second compound 0.1 µM, first compound 10 µM)?
Answer: 1.21%

Question: And the viability, T/C [11]?
Answer: 15.5%

Question: And the viability, T/C [12]?
Answer: 11.4%

Question: And the viability, T/C (second compound 0.316 µM, first compound 0.316 µM)?
Answer: 6.94%

Question: And the viability, T/C (second compound 0.316 µM, first compound 1 µM)?
Answer: 3.93%

Question: And the viability, T/C (second compound 0.316 µM, first compound 3.16 µM)?
Answer: 1.19%

Question: And the viability, T/C (second compound 0.316 µM, first compound 10 µM)?
Answer: 1.44%

Question: And the viability, T/C [13]?
Answer: 0.79%

Question: And the viability, T/C [14]?
Answer: 1.09%

Question: What about the viability, T/C (second compound 1 µM, first compound 0.316 µM) of the same compound?
Answer: 0.55%

Question: And the viability, T/C (second compound 1 µM, first compound 1 µM)?
Answer: 0.99%

Question: What about the viability, T/C (second compound 1 µM, first compound 3.16 µM) of the same compound?
Answer: 1.55%

Question: And the viability, T/C (second compound 1 µM, first compound 10 µM)?
Answer: 2.46%

Question: And the viability, T/C [15]?
Answer: 0.79%

Question: What about the viability, T/C [16] of the same compound?
Answer: 0.89%

Question: What about the viability, T/C (second compound 3.16 µM, first compound 0.316 µM) of the same compound?
Answer: 0.61%

Question: What about the viability, T/C (second compound 3.16 µM, first compound 1 µM) of the same compound?
Answer: 0.96%

Question: What about the viability, T/C (second compound 3.16 µM, first compound 3.16 µM) of the same compound?
Answer: 1.17%

Question: What about the viability, T/C (second compound 3.16 µM, first compound 10 µM) of the same compound?
Answer: 0.55%

Question: What about the viability, T/C [17] of the same compound?
Answer: 0.18%

Question: And the viability, T/C [18]?
Answer: 0.12%

Question: What about the viability, T/C (second compound 10 µM, first compound 0.316 µM) of the same compound?
Answer: 0.13%

Question: And the viability, T/C (second compound 10 µM, first compound 1 µM)?
Answer: 0.13%

Question: And the viability, T/C (second compound 10 µM, first compound 3.16 µM)?
Answer: 0.11%

Question: And the viability, T/C (second compound 10 µM, first compound 10 µM)?
Answer: 0.12%

Question: How did the viability, T/C (compound 0.0316 µM) turn out when `COC1C=CCC(C)C(C)S(=O)(=O)NC(=O)c2ccc3c(c2)N(CC2CCC21)CC1(CCCc2cc(Cl)ccc21)CO3` (stereo not drawn) was run?
Answer: 93.3% and 85.4%

Question: And the viability, T/C (compound 0.1 µM)?
Answer: 112% and 93.6%

Question: What about the viability, T/C (compound 0.316 µM) of the same compound?
Answer: 112%

Question: And the viability, T/C (compound 1 µM)?
Answer: 123% and 108%

Question: And the viability, T/C (compound 3.16 µM)?
Answer: 125% and 110%

Question: What about the viability, T/C (compound 10 µM) of the same compound?
Answer: 26.2% and 28.4%

Question: What about the IC50 (curve of compound) of the same compound?
Answer: 7310 nM and 7140 nM

Question: `Cn1ncnc1[C@H]1c2n[nH]c(=O)c3cc(F)cc(c23)N[C@@H]1c1ccc(F)cc1` + CN1CCN(c2cc(C(=O)Nc3cc4cc(-c5cnn(C)c5)ccc4cn3)ccn2)CC1 was tested. Which IC50 [1] did it give?
Answer: > 100 nM

Question: What about the IC50 [2] of the same compound?
Answer: 1.71 nM

Question: What about the IC50 [3] of the same compound?
Answer: < 0.316 nM

Question: What about the IC50 [4] of the same compound?
Answer: < 0.316 nM

Question: And the IC50 [5]?
Answer: < 0.316 nM

Question: What about the IC50 [6] of the same compound?
Answer: < 0.316 nM

Question: And the viability, T/C (second compound 0.0316 µM, first compound 0.000316 µM)?
Answer: 80.5%

Question: And the viability, T/C (second compound 0.0316 µM, first compound 0.001 µM)?
Answer: 71%

Question: And the viability, T/C (second compound 0.0316 µM, first compound 0.00316 µM)?
Answer: 61.8%

Question: And the viability, T/C (second compound 0.0316 µM, first compound 0.01 µM)?
Answer: 65.4%

Question: What about the viability, T/C [7] of the same compound?
Answer: 84.7%

Question: And the viability, T/C [8]?
Answer: 60.3%

Question: What about the viability, T/C (second compound 0.1 µM, first compound 0.000316 µM) of the same compound?
Answer: 54.1%

Question: What about the viability, T/C (second compound 0.1 µM, first compound 0.001 µM) of the same compound?
Answer: 48.5%

Question: And the viability, T/C (second compound 0.1 µM, first compound 0.00316 µM)?
Answer: 50.8%

Question: And the viability, T/C (second compound 0.1 µM, first compound 0.01 µM)?
Answer: 43.5%

Question: What about the viability, T/C [9] of the same compound?
Answer: 50.1%

Question: What about the viability, T/C [10] of the same compound?
Answer: 42.8%

Question: What about the viability, T/C (second compound 0.316 µM, first compound 0.000316 µM) of the same compound?
Answer: 21.2%

Question: And the viability, T/C (second compound 0.316 µM, first compound 0.001 µM)?
Answer: 23.4%

Question: And the viability, T/C (second compound 0.316 µM, first compound 0.00316 µM)?
Answer: 18.8%

Question: What about the viability, T/C (second compound 0.316 µM, first compound 0.01 µM) of the same compound?
Answer: 17.7%

Question: What about the viability, T/C [11] of the same compound?
Answer: 18.8%

Question: What about the viability, T/C [12] of the same compound?
Answer: 17.2%

Question: And the viability, T/C (second compound 1 µM, first compound 0.000316 µM)?
Answer: 1.28%

Question: And the viability, T/C (second compound 1 µM, first compound 0.001 µM)?
Answer: 1.4%

Question: What about the viability, T/C (second compound 1 µM, first compound 0.00316 µM) of the same compound?
Answer: 1.52%

Question: What about the viability, T/C (second compound 1 µM, first compound 0.01 µM) of the same compound?
Answer: 1.16%

Question: And the viability, T/C [13]?
Answer: 1.67%

Question: What about the viability, T/C [14] of the same compound?
Answer: 1.12%

Question: What about the viability, T/C (second compound 3.16 µM, first compound 0.000316 µM) of the same compound?
Answer: 0.67%

Question: And the viability, T/C (second compound 3.16 µM, first compound 0.001 µM)?
Answer: 0.66%

Question: And the viability, T/C (second compound 3.16 µM, first compound 0.00316 µM)?
Answer: 0.75%

Question: And the viability, T/C (second compound 3.16 µM, first compound 0.01 µM)?
Answer: 0.62%

Question: What about the viability, T/C [15] of the same compound?
Answer: 0.71%

Question: And the viability, T/C [16]?
Answer: 0.48%

Question: What about the viability, T/C (second compound 10 µM, first compound 0.000316 µM) of the same compound?
Answer: 0.16%

Question: And the viability, T/C (second compound 10 µM, first compound 0.001 µM)?
Answer: 0.26%

Question: What about the viability, T/C (second compound 10 µM, first compound 0.00316 µM) of the same compound?
Answer: 0.15%

Question: What about the viability, T/C (second compound 10 µM, first compound 0.01 µM) of the same compound?
Answer: 0.25%

Question: And the viability, T/C [17]?
Answer: 0.18%

Question: And the viability, T/C [18]?
Answer: 0.17%
